The text below walks through data of patent US11738031B2, “Compositions and methods for preventing or treating muscle conditions” (The Board of Trustees of the Leland Stanford Junior …, priority 2017, dated 2023).

For series [1], the system named is cyclic AMP levels in MuSCs. Nature of the series: cAMP activity assay (cAMP-Glo). The series is classed as cell-based, mouse. As to conditions: PGE2 10 ng/ml, 1 hr. The method, then: cAMP activity assay: MuSCs were treated with DMSO (vehicle) or PGE2 (10 ng/ml) for 1 h and cyclic AMP levels measured according to the cAMP-Glo Assay protocol optimized by the manufacturer (Promega). Each sample was assayed in triplicate and in two independent experiments.
MuSCs were treated with DMSO (vehicle) or PGE2 (10 ng/ml) for 1 h and cyclic AMP levels measured according to the cAMP-Glo Assay protocol optimized by the manufacturer (Promega). Each sample was assayed in triplicate and in two independent experiments.

For series [2] the following is noted: cited from earlier work; for half-life: in vivo.
The next series deals with aged MuSCs. Nature of the series: Clonal aged MuSC proliferation and fate by time-lapse microscopy (48 h). The series is classed as cell-based, mouse. The text has this: Clonal muscle stem cell proliferation and fate analyses: We assayed clonal muscle stem cell proliferation by time-lapse microscopy as previously described^56. Briefly, we treated isolated aged MuSCs with PGE2 (Cayman Chemical) or vehicle (DMSO) for 24 hr. After five days of growth on hydrogels, cells were reseeded at a density of 500 cells per cm^2 surface area in hydrogel microwells with 600 μm diameter. For time-lapse microscopy we monitored cell proliferation for those wells with single cells beginning 12 hr (day 0) to two days after seeding and recorded images every 3 min at 10× magnification using a PALM/AxioObserver Z1 system (Carl Zeiss MicroImaging) with a custom environmental control chamber and motorized stage. We changed medium every other day in between the acquisition time intervals. We analyzed time-lapse image sequences using the Baxter Algorithms for Cell Tracking and Lineage Reconstruction to identify and track single cells and generate lineage trees^5,6,8-10.
Viable and dead cells were distinguished in time-lapse sequences based on phase-contrast boundary and motility maintenance or loss, respectively. […] The values were estimated using the equations described in^6, and found in Table 1. We denote the proliferation rates in the two intervals p24 and p48 and the corresponding death rates d24 and d48. […] The modeled cell counts in the two time intervals are given by […]

Where [3] appears, read: aged MuSC clones, acute PGE2 treatment, time-lapse 48 h.
Setting [4] is: first 24 hour interval, aged MuSCs.
[5] abbreviates: second 24 hour interval, aged MuSCs.
Setting [6] is: transient 1 day PGE2, 48 h tracking.

SMILES strings stand for the structures. Read-outs that look alike come from different tables or passages of the source.

Broadly, the half-life is how long it takes for the measured level to halve. With `CCCCC[C@H](O)/C=C/[C@H]1[C@H](O)CC(=O)[C@@H]1C/C=C\CCCC(=O)O` [PGE2, prostaglandin E2], in series [1], the “intracellular cAMP levels” value is reported as “elevated downstream intracellular cyclic AMP (cAMP) levels”. In series [2], the half-life in vivo result is “relatively short” and the half-life is 5 min. Also, the half-life result in series [2] (listed as Dinoprostone) is “less than 5 minutes”. Besides, in the series with aged MuSCs (setting [3]), the “percent increase in dead cell count” value was 0.1% and the “percent increase in live cell count” value came to 5.4%. Besides, in the series with aged MuSCs (setting [4]), the “d24, estimated death rate” value is reported as 0.0067 per hours and the “p24, estimated proliferation rate” value is 0.0475 per hours. Also, in the series with aged MuSCs (setting [5]), the “d48, estimated death rate” value is 0.0012 per hours and the “p48, estimated proliferation rate” value is on record as 0.0538 per hours. Further, in the series on aged MuSCs (setting [6]), the “cell death in aged MuSC clones” value is “profound reduction in cell death” and the “proliferation of aged MuSC clones” value is on record as “marked increase in proliferation”. The “cumulative cell numbers of aged MuSC clones” value with aged MuSCs (transient 1 day PGE2, 48 h tracking, spanning 6 generations) is on record as “remarkable increase in cumulative cell numbers”.
